Values of other authors as cited in patent US20250345309A1, “IMMUNE HEALTH IMPROVERS” (Amazentis SA, priority 2024, published 2025).

Conditions: over 4 months, middle-aged adults (Singh et al. 2022); cited from earlier work

## O=c1oc2cc(O)ccc2c2ccc(O)cc12 [Urolithin A (UA)]
  Safety and tolerability of long-term oral administration: safe and well tolerated
